Measured values from US6677460B1, “Aromatic carboxylic acid bicyclic sulfur compounds” (Idemitsu Kosan Company, Limited, priority 1993, dated 2004).

Columns and labels:
Format in all cases: in vivo
slender amaranth [1] = experiment: Upland soil treatment test (8); conditions: 300 g a.i./hectare, 20th day after spraying
Experimental: (§1) 90 Parts by weight of the above carrier and 10 parts by weight of each of Compounds obtained in the above Preparation Examples were uniformly pulverized and mixed to obtain herbicides. Further, for Herbicide Comparative Examples, comparative herbicides were prepared by uniformly pulverizing and mixing 90 parts by weight of the above carrier and 10 parts by weight of each of the following Compounds x, y, A, B and C.
(§2) (8) Biological Test (Upland Soil Treatment Test, Herbicide Examples 48-52 and Herbicide Comparative Examples 13 and 14)
(§3) Seeds of weeds such as large crabgrass, barnyard brass, green foxtail, cocklebur, velvetleaf and slender amarnth and seeds of corn, wheat and barley were sown in 1/5,000-are Wagner pots filled with upland soil, and covert with upland soil. Then, a predetermined amount of the herbicide prepared in the above (1) was suspended in water and uniformly sprayed onto the soil surface. Thereafter, the plant were grown in the greenhouse, and on the 20th day after the spraying treatment, the herbicide was evaluated for herbicidal efficacy.
(§4) The herbicidal efficacy and the phytotoxicity to crops are shown on the basis of the ratings described in (2) Foliar treatment test.

cocklebur [2] = experiment: Upland soil treatment test (8); conditions: 300 g a.i./hectare, 20th day after spraying
Experimental: as §1, §2, §3, §4

large crabgrass [3] = experiment: Upland soil treatment test (8); conditions: 300 g a.i./hectare, 20th day after spraying
Experimental: as §1, §2, §3, §4

barnyard grass [4] = experiment: Upland soil treatment test (8); conditions: 300 g a.i./hectare, 20th day after spraying
Experimental: as §1, §2, §3, §4

green foxtail [5] = experiment: Upland soil treatment test (8); conditions: 300 g a.i./hectare, 20th day after spraying
Experimental: as §1, §2, §3, §4

velvetleaf [6] = experiment: Upland soil treatment test (8); conditions: 300 g a.i./hectare, 20th day after spraying
Experimental: as §1, §2, §3, §4

slender amaranth [7] = experiment: Foliar treatment test (7); conditions: 300 g a.i./hectare, 20th day after spraying
Experimental: as §1
(§5) (7) Biological Test (Foliar Treatment Test, Herbicide Examples 43-47 and Comparative Examples 11 and 12)
as §3, with “barnyardgrass,” for “barnyard brass,”, “amaranth” for “amarnth”, “covered” for “covert”, “The seeds were grown in a greenhouse, and at the stage of 1 to 2 leaves of these plants,” for “Then,”, “leaf and stalk portions at a rate of 200 liter/10 ares.” for “the soil surface.”, “plants” for “plant”
(§6) The herbicidal efficacy and phytotoxcity to crops were shown on the basis of the following ratings.
(§7) The ratio of remaining plant weight to non-treated was determined on the basis of the ratio of remaining plant weight to non-treated=(remaining plant weight in treated plot/remaining plant weight in non-treated plot)×100. This is also applicable to biological tests hereinafter.

cocklebur [8] = experiment: Foliar treatment test (7); conditions: 300 g a.i./hectare, 20th day after spraying
Experimental: as §1, §5
as §3, with “barnyardgrass,” for “barnyard brass,”, “amaranth” for “amarnth”, “covered” for “covert”, “The seeds were grown in a greenhouse, and at the stage of 1 to 2 leaves of these plants,” for “Then,”, “leaf and stalk portions at a rate of 200 liter/10 ares.” for “the soil surface.”, “plants” for “plant”
as §6, §7

large crabgrass [9] = experiment: Foliar treatment test (7); conditions: 300 g a.i./hectare, 20th day after spraying
Experimental: as §1, §5
as §3, with “barnyardgrass,” for “barnyard brass,”, “amaranth” for “amarnth”, “covered” for “covert”, “The seeds were grown in a greenhouse, and at the stage of 1 to 2 leaves of these plants,” for “Then,”, “leaf and stalk portions at a rate of 200 liter/10 ares.” for “the soil surface.”, “plants” for “plant”
as §6, §7

barnyardgrass = experiment: Foliar treatment test (7); conditions: 300 g a.i./hectare, 20th day after spraying
Experimental: as §1, §5
as §3, with “barnyardgrass,” for “barnyard brass,”, “amaranth” for “amarnth”, “covered” for “covert”, “The seeds were grown in a greenhouse, and at the stage of 1 to 2 leaves of these plants,” for “Then,”, “leaf and stalk portions at a rate of 200 liter/10 ares.” for “the soil surface.”, “plants” for “plant”
as §6, §7

green foxtail [10] = experiment: Foliar treatment test (7); conditions: 300 g a.i./hectare, 20th day after spraying
Experimental: as §1, §5
as §3, with “barnyardgrass,” for “barnyard brass,”, “amaranth” for “amarnth”, “covered” for “covert”, “The seeds were grown in a greenhouse, and at the stage of 1 to 2 leaves of these plants,” for “Then,”, “leaf and stalk portions at a rate of 200 liter/10 ares.” for “the soil surface.”, “plants” for “plant”
as §6, §7

velvetleaf [11] = experiment: Foliar treatment test (7); conditions: 300 g a.i./hectare, 20th day after spraying
Experimental: as §1, §5
as §3, with “barnyardgrass,” for “barnyard brass,”, “amaranth” for “amarnth”, “covered” for “covert”, “The seeds were grown in a greenhouse, and at the stage of 1 to 2 leaves of these plants,” for “Then,”, “leaf and stalk portions at a rate of 200 liter/10 ares.” for “the soil surface.”, “plants” for “plant”
as §6, §7

slender amaranth [12] = experiment: Foliar treatment test (2); conditions: dosage 3 g a.i./are, 20th day after treatment
Experimental: as §1
(§8) (2) Biological Test (Foliar Treatment Test, Herbicide Examples 1 and 2 and Herbicide Comparative Examples 1 and 2)
(§9) Seeds of weeds such as large crabgrass, barnyard grass, green foxtail, cocklebur, velvetleaf and slender amaranth and seeds of corn, wheat and barley were sown in 1/5,000-are Wagner pots filled with upland soil, and covered with upland soil. The seeds were grown in a greenhouse, and at the stage of 1˜2 leaves of these plants, a predetermined amount of the herbicide prepared in the above (1) was suspended in water and uniformly sprayed onto leaf and stalk portions at a rate of 200 liter/10 are. Thereafter, the plants were grown in the greenhouse, and on 20th day after the treatment, the herbicide was evaluated for herbicidal efficacy.
as §6, §7

cocklebur [13] = experiment: Foliar treatment test (2); conditions: dosage 3 g a.i./are, 20th day after treatment
Experimental: as §1, §8, §9, §6, §7

large crabgrass [14] = experiment: Foliar treatment test (2); conditions: dosage 3 g a.i./are, 20th day after treatment
Experimental: as §1, §8, §9, §6, §7

barnyard grass [15] = experiment: Foliar treatment test (2); conditions: dosage 3 g a.i./are, 20th day after treatment
Experimental: as §1, §8, §9, §6, §7

green foxtail [16] = experiment: Foliar treatment test (2); conditions: dosage 3 g a.i./are, 20th day after treatment
Experimental: as §1, §8, §9, §6, §7

velvetleaf [17] = experiment: Foliar treatment test (2); conditions: dosage 3 g a.i./are, 20th day after treatment
Experimental: as §1, §8, §9, §6, §7

slender amaranth [18] = experiment: Upland soil treatment test (3); conditions: dosage 3 g a.i./are, 20th day after treatment
Experimental: as §1
(§10) (3) Biological Test (Upland Soil Treatment Test, Herbicide Examples 3 and 4 and Herbicide Comparative Examples 3 and 4)
as §3, with “barnyardgrass,” for “barnyard brass,”, “amaranth” for “amarnth”, “covered” for “covert”, “plants” for “plant”, “on” for “on the”, “the” for “the spraying”
as §4

cocklebur [19] = experiment: Upland soil treatment test (3); conditions: dosage 3 g a.i./are, 20th day after treatment
Experimental: as §1, §10
as §3, with “barnyardgrass,” for “barnyard brass,”, “amaranth” for “amarnth”, “covered” for “covert”, “plants” for “plant”, “on” for “on the”, “the” for “the spraying”
as §4

large crabgrass [20] = experiment: Upland soil treatment test (3); conditions: dosage 3 g a.i./are, 20th day after treatment
Experimental: as §1, §10
as §3, with “barnyardgrass,” for “barnyard brass,”, “amaranth” for “amarnth”, “covered” for “covert”, “plants” for “plant”, “on” for “on the”, “the” for “the spraying”
as §4

barnyard grass [21] = experiment: Upland soil treatment test (3); conditions: dosage 3 g a.i./are, 20th day after treatment
Experimental: as §1, §10
as §3, with “barnyardgrass,” for “barnyard brass,”, “amaranth” for “amarnth”, “covered” for “covert”, “plants” for “plant”, “on” for “on the”, “the” for “the spraying”
as §4

green foxtail [22] = experiment: Upland soil treatment test (3); conditions: dosage 3 g a.i./are, 20th day after treatment
Experimental: as §1, §10
as §3, with “barnyardgrass,” for “barnyard brass,”, “amaranth” for “amarnth”, “covered” for “covert”, “plants” for “plant”, “on” for “on the”, “the” for “the spraying”
as §4

velvetleaf [23] = experiment: Upland soil treatment test (3); conditions: dosage 3 g a.i./are, 20th day after treatment
Experimental: as §1, §10
as §3, with “barnyardgrass,” for “barnyard brass,”, “amaranth” for “amarnth”, “covered” for “covert”, “plants” for “plant”, “on” for “on the”, “the” for “the spraying”
as §4
Also: ranges in brackets are in %.

In the case of CCn1ncc(C(=O)c2ccc(S(C)(=O)=O)cc2C)c1O [y, reference compound], the “Herbicidal Efficacy slender amaranth” value (slender amaranth [1]) is reported as 0 (81-100), the “Herbicidal Efficacy cocklebur” value (cocklebur [2]) is reported as 0 (81-100) and the “Herbicidal Efficacy large crabgrass” value (large crabgrass [3]) is reported as 3 (21-40). For the same molecule, the “Herbicidal Efficacy barnyard grass” value (barnyard grass [4]) was 3 (21-40), the “Herbicidal Efficacy green foxtail” value (green foxtail [5]) was 2 (41-60) and the “Herbicidal Efficacy velvetleaf” value (velvetleaf [6]) was 0 (81-100). For the same molecule, the “Herbicidal Efficacy slender amaranth” value (slender amaranth [7]) was 2 (41-60), the “Herbicidal Efficacy cocklebur” value (cocklebur [8]) was 3 (21-40) and the “Herbicidal Efficacy large crabgrass” value (large crabgrass [9]) was 0 (81-100). For the same molecule, the “Herbicidal Efficacy barnyard grass” value (barnyardgrass) was 0 (81-100), the “Herbicidal Efficacy green foxtail” value (green foxtail [10]) was 0 (81-100) and the “Herbicidal Efficacy velvetleaf” value (velvetleaf [11]) was 3 (21-40). For the same molecule, the “Herbicidal Efficacy slender amaranth” value (slender amaranth [12]) was 2 (41-60), the “Herbicidal Efficacy cocklebur” value (cocklebur [13]) was 3 (21-40) and the “Herbicidal Efficacy large crabgrass” value (large crabgrass [14]) was 0 (81-100). For the same molecule, the “Herbicidal Efficacy barnyard grass” value (barnyard grass [15]) was 0 (81-100), the “Herbicidal Efficacy green foxtail” value (green foxtail [16]) was 0 (81-100) and the “Herbicidal Efficacy velvetleaf” value (velvetleaf [17]) was 3 (21-40). For the same molecule, the “Herbicidal Efficacy slender amaranth” value (slender amaranth [18]) was 0 (81-100), the “Herbicidal Efficacy cocklebur” value (cocklebur [19]) was 0 (81-100) and the “Herbicidal Efficacy large crabgrass” value (large crabgrass [20]) was 3 (21-40). For the same molecule, the “Herbicidal Efficacy barnyard grass” value (barnyard grass [21]) was 2 (41-60), the “Herbicidal Efficacy green foxtail” value (green foxtail [22]) was 2 (41-60) and the “Herbicidal Efficacy velvetleaf” value (velvetleaf [23]) was 0 (81-100).
